Measured values as given in US20230212533A1 (THE REGENTS OF THE UNIVERSITY OF MICHIGAN, priority 2020, published 2023).
“And” between values parts separate entries of the source, which are not always exact repeats. Identical values can stand only once. Like-named read-outs stand apart in the source and are kept apart here.

Key:
[1] = test system: L-6-hydroxynicotine oxidase (LHNO, 3NG7), wild type, SEQ ID NO:13; conditions: cited from earlier work; for kcat/Km: wild-type LHNO
[2] = molecular target: T1, Pseudomonas putida S16 nicotine oxidoreductase NicA2, wild type, SEQ ID NO:131 (Pseudomonas putida, UniProt F8G0P2)
Target sequence in this assay (F8G0P2 2-482): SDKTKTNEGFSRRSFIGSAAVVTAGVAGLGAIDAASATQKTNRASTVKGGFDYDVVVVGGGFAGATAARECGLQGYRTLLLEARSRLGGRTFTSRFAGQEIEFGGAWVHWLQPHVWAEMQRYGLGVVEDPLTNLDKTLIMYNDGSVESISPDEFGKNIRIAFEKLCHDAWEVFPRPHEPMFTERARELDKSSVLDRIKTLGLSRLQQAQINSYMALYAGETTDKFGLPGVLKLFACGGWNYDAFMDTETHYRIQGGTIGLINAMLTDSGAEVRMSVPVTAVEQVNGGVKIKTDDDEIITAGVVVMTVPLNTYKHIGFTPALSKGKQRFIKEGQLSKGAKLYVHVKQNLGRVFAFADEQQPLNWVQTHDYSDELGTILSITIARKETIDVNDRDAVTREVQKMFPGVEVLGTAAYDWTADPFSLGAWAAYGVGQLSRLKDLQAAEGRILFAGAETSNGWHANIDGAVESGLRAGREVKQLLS
Method: All stopped-flow experiments were performed in 40 mM HEPES-KOH, pH 7.5, 100 mM NaCl, 10% glycerol at 4° C. NicA2 and CycN solutions were made anaerobic in glass tonometers by repeated cycles with vacuum and anaerobic argon^42. When needed, NicA2's FAD was reduced in the anaerobic tonometer by titrating with a dithionite solution housed in a gas-tight Hamilton syringe. The dithionite solution was slowly added up to the point where NicA2's flavin reached the fully-reduced hydroquinone state, and the redox status of the flavin was spectrophotometrically monitored during the titration using a Shimadzu UV-1900 UV-VIS spectrophotometer. […] Buffer containing O2 at specific concentrations was prepared by sparging different O2/N2 gas ratios through buffer in a gas-tight syringe for at least 15 minutes at room temperature. The various O2/N2 gas ratios were prepared from O2 and N2 gas cylinders using a Maxtec MaxBlend 2 gas mixer, and the dissolved O2 concentration in the buffer solution was calculated using a Henry's law constant for O2 of 770 atm M^−1.
Stopped-flow experiments were conducted using a TgK Scientific SF-61 DX2 KinetAsyst stopped-flow instrument that had been previously equilibrated with a glucose/glucose oxidase solution to make the internal components of the system anaerobic. […] The reaction of NicA2-Flred with O2 was monitored using the instrument's multi-wavelength CCD detector (1.6 ms data interval time). […] Kinetic traces were fit to sums of exponentials using KaleidaGraph (Synergy Software) to determine observed rate constants.
We next monitored the reaction of NicA2-Flred with O2 in the oxidative half reaction via stopped-flow experiments.

[3] = test system: Escherichia coli; assay: toxicity to E. coli; assay type: cell-based
Method: Directed evolution is a powerful means to improve enzyme function. […] The experiments are performed using the fast-growing model organism, Escherichia coli, which permits evaluation of many variants of NicA2 for performance-enhancing mutations. […] Identification of these variants is expected to reveal the molecular determinants of wild-type NicA2's low O2-dependent activity.
Directed evolution is a powerful means to improve enzyme function. […] The experiments were performed using the fast-growing model organism, Escherichia coli, which permitted evaluation of many variants of NicA2 for performance-enhancing mutations. […] Identification of these variants is expected to reveal the molecular determinants of wild-type NicA2's low O2-dependent activity.

[4] = molecular target: T1, Pseudomonas putida S16 nicotine oxidoreductase NicA2, wild type, SEQ ID NO:131; conditions: anaerobic, pH 7.5, 4° C., 450 nm
Target sequence in this assay (F8G0P2 2-482): as above
Method: All stopped-flow experiments were performed in 40 mM HEPES-KOH, pH 7.5, 100 mM NaCl, 10% glycerol at 4° C. NicA2 and CycN solutions were made anaerobic in glass tonometers by repeated cycles with vacuum and anaerobic argon^42. When needed, NicA2's FAD was reduced in the anaerobic tonometer by titrating with a dithionite solution housed in a gas-tight Hamilton syringe. The dithionite solution was slowly added up to the point where NicA2's flavin reached the fully-reduced hydroquinone state, and the redox status of the flavin was spectrophotometrically monitored during the titration using a Shimadzu UV-1900 UV-VIS spectrophotometer. […] The various O2/N2 gas ratios were prepared from O2 and N2 gas cylinders using a Maxtec MaxBlend 2 gas mixer, and the dissolved O2 concentration in the buffer solution was calculated using a Henry's law constant for O2 of 770 atm M^−1.
Stopped-flow experiments were conducted using a TgK Scientific SF-61 DX2 KinetAsyst stopped-flow instrument that had been previously equilibrated with a glucose/glucose oxidase solution to make the internal components of the system anaerobic. […] The reaction of NicA2-Flred with O2 was monitored using the instrument's multi-wavelength CCD detector (1.6 ms data interval time). […]

[5] = molecular target: T1, Pseudomonas putida S16 nicotine oxidoreductase NicA2, wild type, SEQ ID NO:131; conditions: estimated from reported doubling time of one hour
Target sequence in this assay (F8G0P2 39-482): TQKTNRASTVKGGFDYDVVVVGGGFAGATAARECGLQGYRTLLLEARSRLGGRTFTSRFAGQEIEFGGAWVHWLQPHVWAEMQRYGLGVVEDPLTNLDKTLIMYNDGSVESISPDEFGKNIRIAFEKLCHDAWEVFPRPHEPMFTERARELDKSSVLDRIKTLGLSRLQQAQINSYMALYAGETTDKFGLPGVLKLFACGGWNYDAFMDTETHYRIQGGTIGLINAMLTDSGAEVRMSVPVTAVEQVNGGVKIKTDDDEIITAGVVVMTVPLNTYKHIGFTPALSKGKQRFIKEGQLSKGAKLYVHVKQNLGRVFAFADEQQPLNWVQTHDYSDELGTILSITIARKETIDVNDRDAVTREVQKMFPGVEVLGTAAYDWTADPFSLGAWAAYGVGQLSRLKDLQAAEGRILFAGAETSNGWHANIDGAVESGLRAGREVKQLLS

[6] = molecular target: T1, Pseudomonas putida S16 nicotine oxidoreductase NicA2, wild type, SEQ ID NO:131; conditions: WT P. putida S16; about 5 mM nicotine degraded by about 3.5 nM NicA2 in 16 hours
Target sequence in this assay (F8G0P2 39-482): as above
Method: Both wild-type and ΔcycN strains were grown overnight in LB. The next day, these cultures were diluted to OD 0.1 in 5 mL M9 salts+0.4% glycerol and allowed to grow for 2 hours. […] From then on, the cultures were sampled at 2, 4, 8, 24, and 49 hours. 200 μL of culture was extracted at each time point and spun down at 16,000 g for 10 minutes. The supernatant was isolated, and 100 μL supernatant was mixed with 300 μL methanol to prepare HPLC samples. The cell pellet was resuspended in 100 μL Bacterial Protein Extraction Reagent (B-PER; Thermo Fisher) and allowed to incubate at room temperature for 15 minutes to complete lysis. After this time had elapsed, 25 μL of 5× reducing gel loading buffer was added to each sample.
Samples for HPLC were further clarified by spinning at 16,000 g for 30 minutes. 100 μL of each clarified sample was placed into autosampler vials. […] Samples and standards were within the linear range of detection, and the absorbance peaks were integrated for quantification.
Samples for western blot analysis were boiled for 5 minutes. […] Protein bands were quantified using LI-COR Odyssey software, and the NicA2 standard curve was used to determine the linear range of detection and concentration of NicA2 at each time point from the experiment.

[7] = test system: Pseudomonas putida S16 nicotine oxidoreductase NicA2, wild type, SEQ ID NO:131; conditions: in vitro, cited from earlier work
[8] = cited from earlier work

## CN1CCC[C@H]1c1ccc(O)nc1 [L-6-hydroxynicotine]
[1]; O2 as the electron acceptor for flavin oxidation, substrate L-6-hydroxynicotine
  kcat: 78 s⁻¹
[1]
  kcat/Km: 600000 M⁻¹ s⁻¹

## CN1CCC[C@H]1c1cccnc1 [L-nicotine]
[1]
  kcat/Km: 42 M⁻¹ s⁻¹

## O=O [O2, molecular oxygen]
[1]; reaction with oxygen
  kcat: 78 s⁻¹
[2]; at ~250 μM O2, calculated from bimolecular rate constant
  kobs of NicA2-Flred oxidation by O2: 0.007 s⁻¹
[2]; pH 7.5, 4° C., 450 nm
  bimolecular rate constant for flavin oxidation by O2 (kox^O2): 27 ± 1 M⁻¹ s⁻¹ and 27 M⁻¹ s⁻¹

## CN1CCC[C@H]1c1cccnc1 [nicotine]
[1]; oxygen dependent reaction
  kcat for degrading nicotine relative to NicA2: 5 fold
[3]; about this level or higher
  concentration toxic to E. coli: about 1 mg/mL
[4]
  kobs (fastest phase, reduction of NicA2's FAD by nicotine): about 180 s^−1
[5]
  in vivo turnover rate (kcat): 1 s⁻¹
[6]
  in vivo turnover rate: about 24 s^−1
[7]; O2 as electron acceptor
  turnover number (O2-dependent nicotine turnover): 0.007 s⁻¹
[7]; oxygen as electron acceptor
  kcat (conversion of nicotine to pseudooxynicotine): 0.007 s⁻¹

## CNCCCC(=O)c1cccnc1 [pseudooxynicotine]
[3]; e. coli culture
  concentration up to which non-toxic to E. coli: at least 5 mg/mL
[8]
  addictiveness in animal models: non-addictive
  toxicity in animal models: non-toxic
